Source: patent publication US5604255A, “N-(1-thienylcycloalkyl)alkenylamines for treatment of neurotoxic injury” (priority 1994, dated 1997)

Columns and labels:
NMDA [1] = conditions: Berry et al, Eur. J. Pharm., 96, 261-267 (1983); spinal neurones; cited from earlier work
[2] = system: [^3 H]PCP binding sites, rat cerebral cortical membranes; conditions: Goldman et al, FEBS Lett., 170, 333-336 (1985); cited from earlier work
hippocampal neurons [3] = assay: Chronic hypoxic insult assay (MTT neuronal survival); format: cell-based, Sprague-Dawley rats
Description: Compound No. 1 was tested for its ability to protect hippocampal neurons from hypoxia-induced cell death. Cultures of hippocampal neurons were prepared from embryonic day 17 Sprague-Dawley rats. The hippocampi were dissociated into a single cell suspension by incubation with 0.25% trypsin, 40 mg/ml DNase followed by gentle trituration through a Pasteur pipet. The cells were plated in a polylysine-coated 96-well plate and maintained in a chemically defined medium until use. The cells were grown for 2 to 3 weeks in 5% CO2 -in-air humidified environment at 36° C. to establish a thick network of neuronal processes with numerous spontaneously active synapses. […] Following 2 hours of exposure to normal O2 tension, the cultures were processed for morphological and quantitive biochemical neuronal cell viability assays.
The neuronal survival assay utilized the compound MTT [(3-(4,5-dimethylthiazol-2-yl)-2,5-diphenyl tetrazolium bromide)], a pale yellow substrate that is cleaved by the mitochondrial enzyme succinate-dehydrogenase to yield a dark blue formazan product. […] The precipitate was then solubilized using 0.08N HCl/isopropanol mixture and the absorbance measured with an ELISA plate reader (Dynatech MR600) using a test wavelength of 570 nm and a reference wavelength of 630 nm. […]

hippocampal neurons [4] = assay: Acute azide toxicity assay (MTT neuronal survival); format: cell-based, Sprague-Dawley rats
hippocampal neurons [5] = assay: Glutamate neurotoxicity assay (MTT neuronal survival); format: cell-based, Sprague-Dawley rats; conditions: for Protection from glutamate toxicity: 500 μM glutamate, 1 hour; for Optical Density (MTT, viable cells): units + SDM, 500 μM glutamate 1 hour, control 0.163, glutamate 0.092
Description: Compound No. 1 was tested for its ability to protect hippocampal neurons from hypoxia-induced cell death. Cultures of hippocampal neurons were prepared from embryonic day 17 Sprague-Dawley rats. The hippocampi were dissociated into a single cell suspension by incubation with 0.25% trypsin, 40 mg/ml DNase followed by gentle trituration through a Pasteur pipet. The cells were plated in a polylysine-coated 96-well plate and maintained in a chemically defined medium until use. The cells were grown for 2 to 3 weeks in 5% CO2 -in-air humidified environment at 36° C. to establish a thick network of neuronal processes with numerous spontaneously active synapses. Exposure to hypoxic/anoxic environment was accomplished by placing the cultures in an anaerobic chamber, and flushing it with a mixture of 95% N2 +5% CO2 gas to rapidly drop the O2 tension to near zero. The O2 tension was maintained at near zero using a disposable H2 +CO2 generator envelope with palladium catalyst. Compound No. 1 was added to the culture medium prior to incubation in the anaerobic chamber and maintained there for 6 hours. Following 2 hours of exposure to normal O2 tension, the cultures were processed for morphological and quantitive biochemical neuronal cell viability assays.
The neuronal survival assay utilized the compound MTT [(3-(4,5-dimethylthiazol-2-yl)-2,5-diphenyl tetrazolium bromide)], a pale yellow substrate that is cleaved by the mitochondrial enzyme succinate-dehydrogenase to yield a dark blue formazan product. This process requires active mitochondria, present only in live cells. Cultures of hippocampal neurons grown in 96-well plates were incubated with 1 mg/ml MTT at 36° C. in a 10% CO2 -in-air incubator for 30-60 min. At the end of the incubation, a dark blue precipitate outlined only viable cells. The precipitate was then solubilized using 0.08N HCl/isopropanol mixture and the absorbance measured with an ELISA plate reader (Dynatech MR600) using a test wavelength of 570 nm and a reference wavelength of 630 nm. The resulting optical density is directly proportional to the number of viable cells.
Compound No. 1 was tested for its ability to protect neurons from glutamate-induced neurotoxicity, which selectively kills mature neurons while sparing glial cells. Neuronal cells were prepared and cell viability assays were performed as described in the chronic hypoxia insult assay, above.
Hippocampal cultures were exposed to 500 μM glutamate for 1 hour either in the presence or absence of Compound No. 1 and immediately thereafter processed for qualitative (morphological) and quantitative viability assay.

NMA = assay: NMDA/KA antagonist assay in embryo retina: blocking NMA neurotoxicity; set-up: species or system chick embryo; conditions: NMA 200 μM, 30 min, 37° C.
Description: (§1) A 15-day old chick embryo retina, incubated for 30 min. in a balanced salt solution (BSS) containing 1 mM Glu, developed a full lesion characteristic of an immature mouse retina following s.c. administration of Glu. Other excitotoxin agonists also produce acute lesions within 30 min., each agent being effective at a concentration proportional to its known excitatory and toxic potencies. The pattern of cellular degeneration is restricted in each case to the ganglion cell, inner plexiform and inner nuclear layers, but within these areas certain agonists induce different patterns of degeneration, the differences being most pronounced between NMA and KA. Four agonists were employed in the present test, each at a concentration established previously to be the lowest concentration required to consistently cause a fully-developed retinal lesion: KA (25 μM), Quis (50 μM), NMA (200 μM) and Glu (1000 μM). Compound No. 1 and other PCP-like compounds were tested at various concentrations for their ability to prevent KA, Quis, NMA or Glu neurotoxicity. […] Internal controls in each experiment consisted of at least six specimens being incubated with agonist alone. A typical toxic reaction had to be present in all controls and absent from all experimental specimens in order to qualify as a blocking effect. The method of tissue preparation was as follows: 15-day old chick embryos were decapitated and their eyes removed and cut into quadrants after excising the cornea and removing the lens, vitreous and iris. The retinal quadrants were then gently separated from the pigment epithelium and incubated for 30 min. at 37° C. in BSS to which an agonist or agonist plus antagonist was added. The BSS contained 140 mMNa^+, 5.0 mM K^+, 0.5 mM Ca^++, 4.5 mM Mg^++, 150 mM Cl^-, 5.6 mM glucose and bicarbonate/phosphate buffer (pH 7.3). […]

KA = assay: NMDA/KA antagonist assay in embryo retina: blocking KA neurotoxicity; set-up: species or system chick embryo; conditions: KA 25 μM, 30 min, 37° C.; tested from 1000 μM downward
Description: as §1

Quis = assay: NMDA/KA antagonist assay in embryo retina: blocking Quis neurotoxicity; set-up: species or system chick embryo; conditions: Quis 50 μM, 30 min, 37° C.; footnote: @ up to 500 μM
Description: as §1

rats = assay: Behavioral assay, stereotyped behavior in rats; format: in vivo, Male Sprague-Dawley rats; conditions: for Stereotyped Behavior ED50: i.c.v., at time of maximal behavioral effect, parentheses: 95% confidence intervals
Description: Compound No. 1 was tested in comparison with PCP and TCP by an in vivo assay which determined stereotypic behavior in rats treated with the compounds. Male Sprague-Dawley rats weighing 200 to 250 g were used in the behavioral experiments. Each rat was used only once. Rats were anesthetized lightly with ether before a 20-gauge needle was used to make a hole in the rat's skull for i.c.v. injection of drugs at a later date. The rats were allowed to recover for at least 1 day before being used in the behavioral assays. On the day of the experiment, rats were placed individually into plastic rat cages and allowed at least 1 hr to acclimate before testing. Drugs were administered to rats in a random, single-blind fashion. Behavioral ratings were taken at 5-min intervals up to 1 hr after drug administration i.c.v. using the PCP rating scale as described by Sturgeon et al [Sturgeon, R. D., Fessler, R. G. and Meltzer, H. Y., "Behavioral Rating Scales for Accessing Phencyclidine-Induced Locomotor Activity, Stereotyped Behavior And Ataxia In Rats", European J. Pharmacol. 59 169, (1970)].
Dose-response curves for each treatment were determined at the time of maximal behavioral effect. Peak effects were found 5 min after i.c.v. administration of PCP (25-20000 nmol/rat). […] A rating of 5 in the PCP-rating scale was considered as complete stereotyped behavior, that is, a 100% response. At least 21 rats (at least seven rats/dose) were used to determine each dose-response curve and EDso values. ED50 values and dose-response curves were evaluated using a computerized Finney assay [Statistical Methods In Biological Assays, 2nd Edn., Hatner Pub. Co., New York (1964)].
The ability of the tested compounds to induce stereotyped behavior was assessed at 2.5, 5 and 10 minutes and thereafter every 5 min up to 1 hr after i.c.v., i.p., or s.c. administration.

PCP receptors = assay: Radioreceptor assay, displacement of 3H-TCP from rat brain membranes; conditions: read-out: Ki apparent; units + SEM; 1 nM 3H-TCP, whole rat brain membranes, 1 hour incubation
NMDA [6] = conditions: Anis et al, Br. J. Pharmacol., 79, 565 (1983); cited from earlier work

Compound | Minimal concentration required to provide total protection vs NMA (NMA) | Protection vs KA (KA) | Protection vs Quis (Quis) | Stereotyped Behavior ED50 (rats) | Ki (PCP receptors) | further results
CC1CCCN(C2(c3ccccc3)CCCCC2)C1 (single isomer, unassigned; (+)) [(+)-PCMP, (+)-1-(1-phenylcyclohexyl)-3-methylpiperidine] |  |  |  |  |  | Stereoselective effects over isomer counterpart in reducing the excitatory action of NMDA (NMDA [1]): confirmed; Inhibition of specific binding of [^3 H]PCP [2]: potent inhibitor
C1=CCN(C2(c3cccs3)CCCCC2)CC1 [Compound No. 1, 1-[1-(2-thienyl)-cyclohexyl]-1,2,5,6-tetrahydropyridine] | 0.25 µM | Partial @ 5 μM | Zero @ 250 μM | 43 (34-57) nmol/rat | 0.012 ± 0.002 µM | EC (maximum protection) (hippocampal neurons [3]; Rattus norvegicus, Hippocampal neuron, hypoxia 6 hours, read-out: Concentration giving maximum protection of neurons from hypoxic insult): 50 µM; Optical Density (MTT, viable cells) (hippocampal neurons [3]; units + SDM, hypoxia + 50 μM compound, 6 hours, untreated control 0.163, hypoxia 0.062): 0.173 ± .033; Protection of neurons from sodium azide poisoning (hippocampal neurons [4]; 1 μM compound, 10 μM sodium azide, 1 hour): significant protection; Optical Density (MTT, viable cells) (hippocampal neurons [4]; units + SDM, sodium azide 1 hour + 1 μM compound, control 0.146, sodium azide 0.084): 0.138 ± .013; Protection from glutamate toxicity (hippocampal neurons [5]; 5 μM compound): significant protection; Protection from glutamate toxicity (hippocampal neurons [5]; 50 μM compound): Nearly complete protection; Optical Density (MTT, viable cells) (hippocampal neurons [5]; 5 μM compound): 0.147 ± .017; Optical Density (MTT, viable cells) (hippocampal neurons [5]; 50 μM compound): 0.157 ± .017
S=C=Nc1cccc(C2(N3CCCCC3)CCCCC2)c1 [Metaphit, 1-[1-(3-isothiocyanatophenyl)cyclohexyl]piperidine] | 50 µM | No Activity | No Activity |  |  | 
c1ccc(C2(N3CCCCC3)CCCCC2)cc1 [PCP, Phencyclidine] | 1 µM | No Activity | No Activity | 150 (120-180) nmol/rat | 0.096 ± 0.015 µM | Time of peak behavioral effect (rats; after i.c.v. administration, 25-20000 nmol/rat): 5 min; Time of peak behavioral effect (rats; after i.p. administration, 2.0-32 mg/kg): 15 min; Reduction of the excitatory effects of NMDA as compared to KA and QUIS (NMDA [6]): reduce selectively the excitatory effects of NMDA
c1csc(C2(N3CCCCC3)CCCCC2)c1 [TCP] |  |  |  | 56 (49-76) nmol/rat | 0.02 ± 0.006 µM | 
CC1CCC(c2ccccc2)(N2CCCCC2)CC1 (stereo not drawn) [cis-N-(1-phenyl-4-methylcyclohexyl)piperidine] |  |  |  |  |  | Stereoselective effects over isomer counterpart in reducing the excitatory action of NMDA (NMDA [1]): confirmed
CNC1(c2ccccc2Cl)CCCCC1=O (stereo not drawn) [ketamine] |  |  |  |  |  | Reduction of the excitatory effects of NMDA as compared to KA and QUIS (NMDA [6]): reduce selectively the excitatory effects of NMDA
